Experimental data from patent US7666913B2, “Method of treating or preventing osteoporosis using isotaxiresinol derived from Taxus yunnanensis” (Kotosugi Inc., priority 2004, dated 2010).

Key:
Type in all cases: in vivo, rat
[1] = tested on: ovariectomized female Wistar rats, proximal tibia bone; assay: Antiosteoporotic activity in ovariectomized rats: pQCT of proximal tibia (BMC, BMD, cortical geometry, bone strength indices); details: for Cancellous bone BMC / Cancellous bone BMD / Cortical bone BMC / Cortical bone BMD / Cortical bone thickness / Edno. C. (endosteal circumference) / Peri. C. (periosteal circumference) / Total bone BMC / Total bone BMD / Cortical bone thickness as % of that of the Sham group / Bone strength index PSSI / Bone strength index XSSI / Bone strength index YSSI: OVX rats; for Cancellous bone BMC / Cancellous bone BMD / Cortical bone BMC / Cortical bone BMD / Cortical bone thickness / Edno. C. (endosteal circumference) / Peri. C. (periosteal circumference) / Total bone BMC / Total bone BMD / Bone strength index PSSI / Bone strength index XSSI / Bone strength index YSSI: 6 weeks, 1 mm under growth plate
Method: Antiosteoporotic Activity of ITX was Assessed by Using Rats. Each of the animal groups for experiments included comprised 10 rats. Ovaries were removed from female Wistar rats (age: 8 months, weight: 260-330 g). ITX, suspended in 1% water solution of carboxymethl cellulose sodium salt, was orally administered to rats of one group in a dose of 50 mg/kg (weight of rat) and to rats of another group in a dose of 100 mg/kg (weight of rat) 6 times per week after 2 weeks of the removal. […] An OVX (ovariectomized) group was prepared as negative control. Furthermore, another group was sham-operated as a Sham group. The OVX group and the Sham group were only fed, with no compound or drug given. Tibial characteristics of the rats, which were anesthetized in advance, were measured by means of peripheral quantitative computed tomography (pQCT) 6 weeks after the initiation of the administration (i.e., 8 weeks after the removal of the ovaries). In the measurement, the left tibiae were scanned with a pQCT system XCT Research M (manufactured by Stratec Medizintechnik GmbH, Germany). Voxel size was set to 0.08 mm, slice thickness was set to 0.5 mm, and cortical BMD threshold was set to 464 mg/cm^3. Furthermore, peel mode was set to 20 to divide total bone into cortical bone or cancerous bone. A growth plate was identified after preliminary scanning (scout scan), and then a reference position was identified. Next, transverse image sets of four cross-sectional slices were scanned at a region of 1 to 5 mm under the growth plate. Cortical BMC and BMD and cancellous BMC and BMD, thickness of cortical bone, and periosteal circumference and endosteal circumference of cortical bone were measured at a separation mode of 3 and a contour mode of 2. Three indices of bone strength (X-, Y-, and Polar-axes) were also measured, and the data obtained were processed by XCT Research Series Manual Software Version 5.4, in which case the standard cortical BMD was set to 1,200 mg/cm^3. […] The figures in the total bone columns show the values of the whole bone obtained by measuring cancellous bone and cortical bone together. […] The presentation of t-test results applies to Table 4 as well. In the experiment, three bone strength indexes were measured: PSSI (polar-axis strength index), XSSI (X-axis strength index), and YSSI (Y-axis strength index).

[2] = tested on: ovariectomized female Wistar rats, tibiae and femora; assay: Antiosteoporotic activity in ovariectomized rats: weight and length of tibiae and femora; details: for Femur Length / Femur Weight / Tibia Length / Tibia Weight: OVX rats, mean ± SD
Method: Each of the animal groups for experiments included comprised 10 rats. Ovaries were removed from female Wistar rats (age: 8 months, weight: 260-330 g). ITX, suspended in 1% water solution of carboxymethl cellulose sodium salt, was orally administered to rats of one group in a dose of 50 mg/kg (weight of rat) and to rats of another group in a dose of 100 mg/kg (weight of rat) 6 times per week after 2 weeks of the removal. […] An OVX (ovariectomized) group was prepared as negative control. Furthermore, another group was sham-operated as a Sham group. The OVX group and the Sham group were only fed, with no compound or drug given. Furthermore, a tibia, a femur, and a uterus were removed from every rat and then weighted. […] In the table, ITX 100 is a group of the rats which ITX was given to in a dose of 100 mg/kg, and ITX 50 is a group of the rats which ITX was given to in a dose of 50 mg/kg. E2 is a group of the rats which E2 was given to. The figures in each column of the table show averages and standard deviations of the measured values. The presentation of the figures applies to Table 3 and Table 4 as well.

[3] = tested on: ovariectomized female Wistar rats; assay: Antiosteoporotic activity in ovariectomized rats: body weight and uterine weight
Method: Each of the animal groups for experiments included comprised 10 rats. Ovaries were removed from female Wistar rats (age: 8 months, weight: 260-330 g). ITX, suspended in 1% water solution of carboxymethl cellulose sodium salt, was orally administered to rats of one group in a dose of 50 mg/kg (weight of rat) and to rats of another group in a dose of 100 mg/kg (weight of rat) 6 times per week after 2 weeks of the removal.
An OVX (ovariectomized) group was prepared as negative control. Furthermore, another group was sham-operated as a Sham group. The OVX group and the Sham group were only fed, with no compound or drug given.
Furthermore, a tibia, a femur, and a uterus were removed from every rat and then weighted.

[4] = E2 0.1 mg/kg into abdominal cavity
[5] = ITX 50 mg/kg oral, 6 times per week
[6] = ITX 100 mg/kg oral, 6 times per week

C[C@]12CC[C@@H]3c4ccc(O)cc4CC[C@H]3[C@@H]1CC[C@@H]2O [E2, 17β-estradiol, reference compound]
BMC and BMD (total, cancellous, cortical) compared to the OVX group (in words) ([1]; E2 0.1 mg/kg): inhibition of decrease in all but except total BMD and cancellous BMC
Endosteal circumference compared to the OVX group (in words) ([1]; E2 0.1 mg/kg): inhibition of increase
Increase in XSSI compared to the OVX group ([1]; E2 0.1 mg/kg): 15.3%
Increase in YSSI compared to the OVX group ([1]; E2 0.1 mg/kg): 23.5%
Increase in cortical bone thickness compared to the OVX group ([1]; E2 0.1 mg/kg): 9.8%
Periosteal circumference compared to the OVX group (in words) ([1]; E2 0.1 mg/kg): a decrease
Cancellous bone BMC [1, 4]: 0.96 ± 0.17 mg/mm
Cancellous bone BMD [1, 4]: 244 ± 53 mg/mL
Cortical bone BMC [1, 4]: 7.58 ± 0.48 mg/mm
Cortical bone BMD [1, 4]: 1143 ± 22 mg/mL
Cortical bone thickness [1, 4]: 0.56 ± 0.03 mm
Edno. C. (endosteal circumference) [1, 4]: 9.79 ± 0.57 mm
Peri. C. (periosteal circumference) [1, 4]: 13.4 ± 0.6 mm
Total bone BMC [1, 4]: 10.5 ± 0.7 mg/mm
Total bone BMD [1, 4]: 723 ± 38 mg/mL
Femur Length [2, 4]: 3.59 ± 0.15 cm
Femur Weight [2, 4]: 861 ± 65 mg
Tibia Length [2, 4]: 3.76 ± 0.14 cm
Tibia Weight [2, 4]: 547 ± 94 mg
Body weight at the end compared to the OVX group (in words) ([3]; E2 0.1 mg/kg): inhibition of increase
Body weight at the end ([3]; OVX rats, E2 0.1 mg/kg into abdominal cavity, end of the experiment): 299 ± 33 g
Decrease in uterine weight compared to the Sham group ([3]; OVX rats, E2 0.1 mg/kg, end of the experiment): 48.5%

COc1cc2c(cc1O)[C@H](c1ccc(O)c(O)c1)[C@@H](CO)[C@H](CO)C2 [ITX, isotaxiresinol]
Cortical BMC compared to the OVX group (in words) ([1]; ITX 50 mg/kg oral): inhibition of decrease
Cortical BMD compared to the OVX group (in words) ([1]; ITX 50 mg/kg oral): inhibition of decrease
Endosteal circumference compared to the OVX group (in words) ([1]; ITX 50 mg/kg oral): inhibition of increase
Increase in PSSI compared to the OVX group ([1]; ITX 50 mg/kg oral): 16.2%
Increase in XSSI compared to the OVX group ([1]; ITX 50 mg/kg oral): 14.2%
Increase in YSSI compared to the OVX group ([1]; ITX 50 mg/kg oral): 24.0%
Periosteal circumference compared to the OVX group (in words) ([1]; ITX 50 mg/kg oral): the same level or an increase
Total BMD compared to the OVX group (in words) ([1]; ITX 50 mg/kg oral): inhibition of decrease
Cancellous BMC compared to the OVX group (in words) ([1]; ITX 100 mg/kg oral): inhibition of decrease
Cortical BMD compared to the OVX group (in words) ([1]; ITX 100 mg/kg oral): inhibition of decrease
Endosteal circumference compared to the OVX group (in words) ([1]; ITX 100 mg/kg oral): inhibition of increase
Periosteal circumference compared to the OVX group (in words) ([1]; ITX 100 mg/kg oral): the same level or an increase
Cortical bone thickness as % of that of the Sham group ([1]; ITX 50 mg/kg oral): 98.3%
Bone strength index PSSI ([1]; ITX 50 mg/kg oral): 10.35 ± 0.89
Bone strength index XSSI ([1]; ITX 50 mg/kg oral): 5.15 ± 0.62
Bone strength index YSSI ([1]; ITX 50 mg/kg oral): 6.45 ± 0.67
Cancellous bone BMC ([1]; ITX 50 mg/kg oral): 0.99 ± 0.12 mg/mm
Cancellous bone BMD ([1]; ITX 50 mg/kg oral): 215 ± 25 mg/mL
Cortical bone BMC ([1]; ITX 50 mg/kg oral): 7.72 ± 0.52 mg/mm
Cortical bone BMD ([1]; ITX 50 mg/kg oral): 1137 ± 14 mg/mL
Cortical bone thickness ([1]; ITX 50 mg/kg oral): 0.58 ± 0.03 mm
Edno. C. (endosteal circumference) ([1]; ITX 50 mg/kg oral): 9.92 ± 0.54 mm
Peri. C. (periosteal circumference) ([1]; ITX 50 mg/kg oral): 13.7 ± 0.5 mm
Total bone BMC ([1]; ITX 50 mg/kg oral): 10.4 ± 0.8 mg/mm
Total bone BMD ([1]; ITX 50 mg/kg oral): 707 ± 14 mg/mL
Cortical bone thickness as % of that of the Sham group ([1]; ITX 100 mg/kg oral): 93.2%
Bone strength index PSSI ([1]; ITX 100 mg/kg oral): 9.34 ± 0.70
Bone strength index XSSI ([1]; ITX 100 mg/kg oral): 4.77 ± 0.68
Bone strength index YSSI ([1]; ITX 100 mg/kg oral): 5.71 ± 0.41
Cancellous bone BMC ([1]; ITX 100 mg/kg oral): 1.04 ± 0.15 mg/mm
Cancellous bone BMD ([1]; ITX 100 mg/kg oral): 207 ± 28 mg/mL
Cortical bone BMC ([1]; ITX 100 mg/kg oral): 7.40 ± 0.29 mg/mm
Cortical bone BMD ([1]; ITX 100 mg/kg oral): 1138 ± 17 mg/mL
Cortical bone thickness ([1]; ITX 100 mg/kg oral): 0.55 ± 0.03 mm
Edno. C. (endosteal circumference) ([1]; ITX 100 mg/kg oral): 9.97 ± 0.37 mm
Peri. C. (periosteal circumference) ([1]; ITX 100 mg/kg oral): 13.6 ± 0.4 mm
Total bone BMC ([1]; ITX 100 mg/kg oral): 9.82 ± 0.37 mg/mm
Total bone BMD ([1]; ITX 100 mg/kg oral): 683 ± 21 mg/mL
Tibia weight compared with the OVX group (in words) ([2]; ITX 50 mg/kg oral): no significant difference
Femur weight compared with the OVX group (in words) ([2]; ITX 100 mg/kg oral): no significant difference
Femur Length [2, 5]: 3.64 ± 0.05 cm
Femur Weight [2, 5]: 862 ± 64 mg
Tibia Length [2, 5]: 3.98 ± 0.14 cm
Tibia Weight [2, 5]: 588 ± 52 mg
Femur Length [2, 6]: 3.59 ± 0.22 cm
Femur Weight [2, 6]: 897 ± 83 mg
Tibia Length [2, 6]: 3.97 ± 0.24 cm
Tibia Weight [2, 6]: 562 ± 95 mg
Body weight at the end compared to the OVX group (in words) ([3]; ITX 50 mg/kg oral): inhibition of increase
Body weight at the end compared to the OVX group (in words) ([3]; ITX 100 mg/kg oral): inhibition of increase
Body weight at the end ([3]; OVX rats, ITX 50 mg/kg oral, end of the experiment): 318 ± 18 g
Body weight at the end ([3]; OVX rats, ITX 100 mg/kg oral, end of the experiment): 301 ± 15 g
